Patent US11160788B2, “Caspase-1 inhibition and uses thereof for prevention and treatment of neurological conditions” (priority 2016, dated 2021)
pIC50: −log10 of the molar value. Entries after “also recorded” stand apart in the source; their conditions may differ.

Key:
recombinant human Casp1 = molecular target: T1, recombinant human Casp1 (Homo sapiens, UniProt P29466); assay: Caspase inhibition IC50, recombinant human Casp1; assay type: biochemical; conditions: read-out: IC50 against human Casp1
T1 sequence (P29466 120-297 limits assumed): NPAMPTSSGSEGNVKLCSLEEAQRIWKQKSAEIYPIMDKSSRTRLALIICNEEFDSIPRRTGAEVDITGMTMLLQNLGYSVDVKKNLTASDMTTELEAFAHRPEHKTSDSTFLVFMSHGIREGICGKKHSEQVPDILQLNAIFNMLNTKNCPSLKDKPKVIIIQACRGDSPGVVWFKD
T1 sequence (P29466 317-404 limits assumed): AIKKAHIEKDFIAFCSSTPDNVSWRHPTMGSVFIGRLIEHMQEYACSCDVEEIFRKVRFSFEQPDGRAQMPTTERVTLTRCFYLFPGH
Method: FIG. 14: Selectivity and blood brain permeability of VX-765 and VRT-043198. (a-b) IC50 of VX-765 (a) and VRT-043198 (b) against human Casp1-10. (c-d) IC50 of VX-765 (c) and VRT-043198 (d) against mouse Casp1 and Casp11. (e) Blood brain barrier permeability and presence of VX-765 and VRT-043198 in 3 wild type and 4 J20 mice brain cortex and hippocampus and in plasma. Ratios of brain levels to plasma levels are calculated.

J20 mice = assay: Open field hyperactivity, treatment of symptomatic J20 mice; assay type: in vivo, mouse; conditions: for hyperactivity in open field: Treatment 2; for hyperactivity, distance travelled in open field: 50 mg/kg IP
Text: FIG. 8: VX-765 treatment restores cognitive function in J20 mice. (a) Experimental paradigm. Intraperitoneal vehicle-injected wild type (WT+Vehicle; n=13) and J20 mice (J20+Vehicle: n=9), and VX-765-injected J20 mice (J20+VX-765: n=9) mice were behaviourally assessed at 5 different time-points: baseline before treatment (baseline untreated J20 were grouped together; n=18), after 3 IP injections/wk of VX-765 or vehicle (Treatment 1), after 6 additional injections over 2 weeks (Treatment 2), after 4-week Washout period, and after an additional 3 injections in one week (Treatment 3). Mice were sacrificed at 8 months of age after Treatment 3 (b) NOR Discrimination index (Treatment main effect, F(2,20)=85.8, p<0.0001; Time main effect, F(4,80)=4.188, p=0.0039; Treatment×Time interaction, F(8,80)=[…], two-way repeated-measures ANOVA, Dunnett's post-hoc compared to J20+Vehicle). (c) Distance traveled during Open Field task. Data analyzed by repeated measures two-way ANOVA (Treatment main effect, F(2,19)=11.47, p=0.0005; Treatment×Time interaction, F(8,76)=5.69, p<0.0001, two-way repeated-measures ANOVA, Dunnett's post-hoc compared to J20+Vehicle). (d-i) Barnes maze analysis. Learning acquisition (d,g), probe test primary latency and errors (e,h), and target hole preference (f,i); # of pokes of each hole labelled +1 to +9 to the right or −1 to −9 to the left of the target hole during the probe) after Treatment 2 (d-f) and Washout (g-i). Probe tests were analyzed (Treatment 2 primary latency, F(2,52)=5.879, p=0.0050; Treatment 2 primary errors, F(2,52)=9.998, p=0.0002; Washout primary latency, F(2,22)=4.076, p=0.0312; Washout primary errors, F(2,22)=10.84, p=0.0005, ANOVA, Tukey's post-hoc). * p<0.05, ***p<0.001, ****p<0.0001.
Anxiety and hyperactivity are monitored in an open-field paradigm, episodic memory with the NOR, spatial memory with the Barnes maze, and short or long term working memory with the Y maze before and after treatments. Repeated measures are acceptable for the NOR, Barnes and Y maze^2-4. […]

[1] = system: CNS primary human neurons (HPN); assay: MTT assay in primary human neurons; assay type: cell-based; conditions: 25, 50, 100, or 200 μM for 72 hours
Method: (§1) FIG. 13: VX-765 protects CNS primary human neurons (HPN) against APP- or serum deprivation-mediated neuritic beading. (a) MTT assay with increasing dose of VX-765. (b) Fluorescent micrographs showing homogeneous distribution of EGFP in normal neurons and neuritic beading in APP-transfected neurons. (c) Percentage beading in APP-transfected or serum-deprived neurons treated 1 h before and continuously with stressor (Pre-treatment) or 48 h after stressor (post-beading treatment) with 25 or 50 μM VX-765 or with 5 μM Z-YVAD-fmk Casp1 peptide inhibitor. […] (d-e) HPN secreted or cellular Aβ42/total Aβ38+40+42 (d) (F(3,4)=12.73, p=0.0163, ANOVA, Dunnett's post-hoc compared to Serum+DMSO, *p<0.05), and (e) levels of secreted II-1β, IFN-γ, TNF-α, and II-6 from untreated (+S), serum deprived (−S), or serum-deprived human neurons treated with 25 or 50 μM VX-765.
To determine if VX-765 can protect human neurons against neurodegeneration, VX-765 was assessed in primary human fetal CNS neuron cultures. Treatment of HPN with 25, 50, 100, or 200 μM VX-765 for 72 hours was not toxic (FIG. 13a). […] HPN were pre-treated with VX-765 for 1 h before APP transfection and treatment continued thereafter. […] To assess if neuritic beading was reversible, VX-765 was administered 48 hours after APP^WT transfection or serum deprivation.

[2] = system: APP^WT-transfected human primary neurons; assay: Neuritic beading in APPWT-transfected human primary neurons; assay type: cell-based
Method: as §1
EGFP-labeled human primary neurons were either APP^WT transfected or serum deprived. Two treatment strategies were employed to determine VX-765's effects on neuronal degeneration: our Pre-Treatment strategy looked at whether VX-765 could block neuronal degeneration when administered 1 hr prior to APP^WT transfection or serum deprivation, while our Reversal Treatment strategy looked at whether VX-765 could reverse degenerative effects when administered 48 hrs after APP^WT transfection or serum deprivation. Neurons displaying beaded morphology were counted with live imaging and measured as a percentage of the total number of eGFP+ neurons from 24-72 hrs after treatment. The irreversible caspase-1 inhibitor YVAD-fmk was used as positive control in our experiments. Results were obtained from averaging counts for at least 100 eGFP+ neurons per experiment in three independent neuron preparations.

## CCO[C@@H]1OC(=O)C[C@@H]1NC(=O)[C@@H]1CCCN1C(=O)[C@@H](NC(=O)c1ccc(N)c(Cl)c1)C(C)(C)C [VX-765, (S)-1-((S)-2-{[1-(4-amino-3-chloro-phenyl)-methanoyl]-amino}-3,3-dimethyl-butanoyl)-pyrrolidine-2-carboxylic acid ((2R,3S)-2-ethoxy-5-oxo-tetrahydro-furan-3-yl)-amide]
Recombinant human Casp1
  pIC50: 8.43
J20 mice; 10 mg/kg
  hyperactivity in open field: non-significant improvement at T2 with 25, but not 10
J20 mice; 25 mg/kg
  hyperactivity in open field: non-significant improvement
J20 mice; Treatment 2 (3 weeks of treatment)
  hyperactivity, distance travelled in open field: attenuated only after 3 weeks of treatment; also recorded: attenuated by VX-765 only after T2
J20 mice; Treatment 3
  hyperactivity, distance travelled in open field: significantly reduced after T3
J20 mice; after washout
  hyperactivity, distance travelled in open field: reappeared after WO
[1]
  toxicity (MTT assay): not toxic
[2]; pre-treatment 1 h before and continued, VX-765 25 and 50 μM, Z-YVAD-fmk 5 μM, 48 and 72 h
  neuritic beading: prevented neuritic beading
[2]; pre-treatment 1 hr prior, 48 hrs and 72 hrs post transfection, vs DMSO
  reduction in neuritic beading: 40%
